Patent EP0714912B1, “GMP-140 ligand” (THE BOARD OF REGENTS OF THE UNIVERSITY OF OKLAHOMA, priority 1990, dated 1992)

What was measured:
[1] = system: immobilized GMP-140; assay: ELISA (avidin detection) of binding of biotinylated monoclonal antibodies G1, G2, G3 to immobilized GMP-140 in presence of soluble peptide; design: species or system human; settings: for % Binding of Biotinylated MAbs G1: peptide 1.5 mM added to biotinylated mAb G1 (2.5 micrograms/ml) before addition to immobilized GMP-140; for % Binding of Biotinylated MAbs G2: peptide 1.5 mM added to biotinylated mAb G2 (2.5 micrograms/ml) before addition to immobilized GMP-140; for % Binding of Biotinylated MAbs G3: peptide 1.5 mM added to biotinylated mAb G3 (2.5 micrograms/ml) before addition to immobilized GMP-140
Method: Based on competitive ELISAs with the purified protein, G1, G2, and G3 each recognize distinct or only partially overlapping epitopes. 1.5 mM peptide was added to biotinylated mAb at a concentration of 2.5 micrograms/ml, which were then added to the wells containing GMP-140, as described in example 1. Binding was measured by an ELISA with an avidin detection system.
The monoclonal antibodies were biotinylated as follows: to 0.5 ml of purified IgG antibody (1 mg/ml in PBS, pH 7.4) was added 50 µl of 3.2 mM N-hydroxysuccinimide biotin in dimethyl sulfoxide and 50 µl of 1 M NaHCO3. After a 2 hour incubation at room temperature in the dark, the reaction was stopped with 50 µl of 1 M NH4Cl. The biotinylated antibody was then separated from other components by gel filtration on a PD-10 column equilibrated in PBS. The ELISA was performed as follows; all steps were performed at room temperature.
Biotinylated antibody (2.5 µg/ml) with or without 1.5 mM peptide was incubated with wells coated with GMP-140 as described in example 1. After a 2 hour incubation, the antibody was removed, the wells were washed, and 0.1 ml of horseradish peroxidase-conjugated stepavidin (Pierce), diluted 1:1,000 in HBSS/HSA, was added for 30 min. The wells were then washed and 0.1 ml of peroxidase substrate (Pierce) was added for 15 min. The color reaction was read at 405 nm.

[2] = system: immobilized GMP-140; assay: Neutrophil adhesion to purified GMP-140 immobilized on plastic wells (myeloperoxidase read-out); type: cell-based, human; settings: for inhibition of binding of neutrophils to immobilized GMP-140, dependence on concentration: 0.1 mM to 1.5 mM peptide, Figure 2; for inhibition of neutrophil adhesion to immobilized GMP-140 by peptides: peptide screen, result in words
Text: Peptides were screened for their ability to inhibit neutrophil adhesion to purified GMP-140 immobilized on plastic wells, using the assay described by Geng, et al., Nature 343, 757-760 (1990).
Human neutrophils are isolated from heparinized whole blood by density gradient centrifugation on Mono-Poly resolving media, Flow Laboratories. Neutrophil suspensions are greater than 98% pure and greater than 95% viable by trypan blue exclusion. For adhesion assays, neutrophils are suspended at a concentration of 2 x 10^6 cells/ml in Hanks' balanced salt solution containing 1.26 mM Ca^2+ and 0.81 mM Mg^2+ (HBSS, Gibco) with 5 mg/ml human serum albumin (HBSS/HSA). Adhesion assays are conducted in triplicate in 96-well microtiter plates, Corning, incubated at 4°C overnight with 50 microliters of various protein solutions.
GMP-140 is plated at 5 micrograms/ml and the control proteins: human serum albumin (Alb), platelet glycoprotein IIb/IIIa (IIb), von Willebrand factor (vWF), fibrinogen (FIB), thrombomodulin (TM), gelatin (GEL) or human serum (HS), are added at 50 micrograms/ml. All wells are blocked for 2 h at 22°C with 300 microliters HBSS containing 10 mg/ml HSA, then washed three times with HBSS containing 0.1% Tween-20 and once with HBSS. Cells (2 x 10^5 per well were added to the wells and incubated at 22°C for 20 min. The wells were then filled with HBSS/HSA, sealed with acetate tape (Dynatech), and centrifuged inverted at 150 g for 5 min. After discarding nonadherent cells and supernates, the contents of each well are solubilized with 200 microliters 0.5% hexadecyltrimethylammonium bromide, Sigma, in 50 mM potassium phosphate, pH 6.0, and assayed for myeloperoxidase activity, Ley, et al., Blood 73, 1324-1330 (1989). The number of cells bound was derived from a standard curve of myeloperoxidase activity versus numbers of cells. Under all assay conditions, the cells released less than 5% of total myeloperoxidase and lactate dehydrogenase. Results are presented in Table I. 100% adhesion is that seen in the presence of the C-terminal peptide (amino acid residues 761-777 of GMP-140) as a negative control; this value is the same as controls in which neither peptide nor antibody is added to the cells. Inhibition is read as a lower percent adhesion, so that a value of 5% means that 95% of the specific adhesion was inhibited.
Peptides from the lectin-like domain of GMP-140 were assayed for their ability to inhibit adhesion of neutrophils to immobilized GMP-140 in the assay described in example 1. Concentrations tested ranged from 0.1 mM to 1.5 mM.

[3] = system: neutrophils; assay: Specific binding of [125I]GMP-140 to neutrophils (enzyme-treated cells or with competitors); design: species or system human; settings: 6.5 µM of conjugate, 65 µM of oligosaccharide; coupled to bovine serum albumin at about 10:1

Row | Substance | % Binding of Biotinylated MAbs G1 [1] | % Binding of Biotinylated MAbs G2 [1] | % Binding of Biotinylated MAbs G3 [1] | inhibition of binding of neutrophils to immobilized GMP-140, dependence on concentration [2] | inhibition of GMP-140 binding by multivalent neoglycoconjugates [3] | inhibition of neutrophil adhesion to immobilized GMP-140 by peptides [2] | inhibition of neutrophil adhesion to immobilized GMP-140 by peptides ([2]; listed as amino acids 66 to 78)
1 | LECTIN 110-116: synthetic peptide, amino acids 110-116 of the lectin domain of GMP-140 (LKKKHAL; UniProt P16109 151-157, looked up, fragment) | 98% | 100% | 108% |  |  |  | 
2 | C-TERMINUS 761-777: C-terminal peptide (amino acid residues 761-777 of GMP-140) as a negative control (KDDGKCPLNPHSHLGTY; UniProt P16109 802-818, looked up, fragment) [reference compound] | 100% | 100% | 100% |  |  |  | 
3 | amino acids 54-63: peptide from the GMP-140 lectin domain, amino acids 54-63 (RKNNKTWTWV; UniProt P16109 95-104, looked up, fragment) |  |  |  | inhibited binding in a dose-dependent manner |  |  | 
4 | REPEATS 544-556: control peptide from one of the consensus repeats of GMP-140, amino acids 544-556 | 107% | 96% | 111% |  |  |  | 
5 | EGF 134-141: synthetic peptide, amino acids 134-141 of the EGF domain of GMP-140 (LETIGNYT; UniProt P16109 175-182, looked up, fragment) | 97% | 104% | 109% |  |  |  | 
6 | LECTIN/EGF 118-126: synthetic peptide, amino acids 118-126 of GMP-140 (lectin/EGF domains) (YTASCQDMS; UniProt P16109 159-167, looked up, fragment) | 92% | 92% | 104% |  |  |  | 
7 | amino acids 23-30: peptide from the GMP-140 lectin domain, amino acids 23-30 (YTDLVAIQ; UniProt P16109 64-71, looked up, fragment) |  |  |  | inhibited binding in a dose-dependent manner |  |  | 
8 | EGF 145-158: synthetic peptide, amino acids 145-158 of the EGF domain of GMP-140 (YPGFYGPECEYVRE; UniProt P16109 186-199, looked up, fragment) | 94% | 92% | 108% |  |  |  | 
9 | TRANSMEMBRANE 755-761: control peptide from the transmembrane region of GMP-140, amino acids 755-761 (RKRFRQK; UniProt P16109 796-802, looked up, fragment) | 100% | 119% | 104% |  |  |  | 
10 | sialyl Le^x |  |  |  |  | failed to inhibit binding |  | 
11 | amino acids 66-78: overlapping peptide of amino acids 66-78 of the GMP-140 lectin domain (KKALTNEAENWAD; UniProt P16109 107-119, looked up, fragment) |  |  |  | inhibited binding in a dose-dependent manner |  | inhibited adhesion | very active
12 | LECTIN 73-89: synthetic peptide, amino acids 73-89 of the lectin domain of GMP-140 (AENWADNEPNNKRNNED; UniProt P16109 114-130, looked up, fragment) | 95% | 99% | 94% |  |  | inhibited adhesion | 
13 | amino acids 73-83: peptide from the GMP-140 lectin domain, amino acids 73-83 (AENWADNEPNN; UniProt P16109 114-124, looked up, fragment) |  |  |  | inhibited binding in a dose-dependent manner |  |  | 
14 | LECTIN 19-30: synthetic peptide, amino acids 19-30 of the lectin domain of GMP-140 (CQNRYTDLVAIQ; UniProt P16109 60-71, looked up, fragment) |  |  | 54% |  |  |  | 
15 | LECTIN 54-72: synthetic peptide, amino acids 54-72 of the lectin domain of GMP-140 (RKNNKTWTWVGTKKALTNE; UniProt P16109 95-113, looked up, fragment) | 106% | 125% | 104% |  |  | inhibited adhesion | 
16 | EGF 128-132: synthetic peptide, amino acids 128-132 of the EGF domain of GMP-140 (SKQGE; UniProt P16109 169-173, looked up, fragment) | 107% | 92% | 104% |  |  |  | 
17 | LECTIN 91-108: synthetic peptide, amino acids 91-108 of the lectin domain of GMP-140 (VEIYIKSPSAPGKWNDEH; UniProt P16109 132-149, looked up, fragment) | 97% | 93% | 96% |  |  |  | 
